We go through 20 compounds from ChEMBL document CHEMBL1201862, “PubChem BioAssay data set” (2004).

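Cells were grown in 96-well plates and exposed to each compound for 48 hours at five concentrations; endpoints were interpolated linearly between bracketing concentrations, or set to the highest concentration if not reached. At the GI50, growth is halved.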 The source made the active and inactive calls. No stated cut-off is given here; in the data, active = GI50 up to about 1.1 µM and inactive = higher. Where only a bound is given, the exact number is not on record here.

Test systems include SNB-78; KM-20L2; XF498; HOP-18; RXF 631; DMS-114; LXFL 529; DMS-273; M19-MEL.
Holding throughout (assay): NCI tumour cell line growth inhibition, 48 h

Turning to `COc1ncnc2c(NC3OC(CO)C(O)C3O)ncnc12` (stereo not given), the GI50 in the assay with SNB-78 is 0.668 µM (active); in the assay on KM-20L2, 0.407 µM (active); in the assay on XF498 it was 0.902 µM (active); in the assay with HOP-18 it was < 0.01 µM (active); in the assay on RXF 631, 0.3 µM (active); in the assay on DMS-114 it was 0.213 µM (active). In addition, the GI50 with LXFL 529 was 0.505 µM (active); in the assay on DMS-273, 0.152 µM (active).
Consider `Clc1ccc(-c2nnc3c4nnc(-c5ccc(Cl)cc5Cl)n4c4ccccc4n23)c(Cl)c1`, for which the GI50 with SNB-78 is 34.4 µM (inactive); in the assay with KM-20L2, > 100 µM (inactive); in the assay on XF498, > 100 µM (inactive); in the assay with DMS-114 it was > 100 µM (inactive); with LXFL 529 it was > 100 µM (inactive); with DMS-273, > 100 µM (inactive). The GI50 with M19-MEL was > 100 µM (inactive).
In the case of `COC(=O)/C(=N\NC(N)=O)C(C#N)c1ccccc1` (stereo not given), the GI50 is > 100 µM (inactive) with SNB-78; > 100 µM (inactive) with KM-20L2; 75.5 µM (inactive) with XF498; > 100 µM (inactive) in the assay with HOP-18; > 100 µM (inactive) with DMS-114; > 100 µM (inactive) in the assay on LXFL 529. Besides, in the assay with M19-MEL, the GI50 is > 100 µM (inactive).
On to `Cc1c2ccccc2cc2ccc3oc([N+](=O)[O-])cc3c12`, for which the GI50 in the assay on SNB-78 was > 100 µM (inactive); with KM-20L2, > 100 µM (inactive); with XF498, > 100 µM (inactive); with HOP-18, 2 µM (inactive); with DMS-114, > 100 µM (inactive); in the assay with LXFL 529, > 100 µM (inactive). Further, the GI50 with DMS-273 and with M19-MEL was > 100 µM (inactive) in each case.
Turning to `CC(C)=CCC/C(C)=C/Cc1c(O)c(C)cc2c1[nH]c1cc(O)ccc12`, the GI50 with SNB-78, in the assay on KM-20L2, in the assay on DMS-114, in the assay with LXFL 529, in the assay on DMS-273 and in the assay on M19-MEL was > 25 µM (inactive) each time.
As to `N#CC(C(=O)C(=O)Nc1ccc(Cl)cc1)c1ccccc1` (stereo not given), the GI50 with SNB-78, with KM-20L2, in the assay on HOP-18, with RXF 631, in the assay with DMS-114 and in the assay on LXFL 529 was > 100 µM (inactive) each time. The GI50 in the assay with DMS-273 and in the assay on M19-MEL was > 100 µM (inactive) throughout.
Consider `COc1ccc(/C=C2\N=C(c3ccccc3)OC2=O)c(OCc2ccccc2)c1`, for which the GI50 in the assay with KM-20L2 is > 100 µM (inactive); in the assay with HOP-18, > 100 µM (inactive); in the assay on DMS-114, 31.1 µM (inactive); in the assay with LXFL 529 it was 38.2 µM (inactive); in the assay on DMS-273, 32.3 µM (inactive); with M19-MEL, 38.3 µM (inactive).
Take `O/N=C1\CCCCC1C(NO)c1ccccc1` (stereo not given): the GI50 was > 100 µM (inactive) with SNB-78; > 100 µM (inactive) in the assay on KM-20L2; > 100 µM (inactive) in the assay on HOP-18; > 100 µM (inactive) in the assay on RXF 631; 67 µM (inactive) with DMS-114; > 100 µM (inactive) in the assay with LXFL 529. The GI50 with DMS-273 and in the assay with M19-MEL was > 100 µM (inactive) in each case.
As for `O=C(Cc1nc2ccccc2o1)C(=O)Nc1cccc(Cl)c1`, the GI50 with SNB-78, in the assay on KM-20L2, with XF498, in the assay with HOP-18, with DMS-114 and with LXFL 529 was > 100 µM (inactive) each time. Moreover, the GI50 with M19-MEL was > 100 µM (inactive).
With `CN(C)CCCn1cnc2ncccc2c1=O`, the GI50 in the assay with SNB-78 is > 100 µM (inactive); in the assay on XF498, > 100 µM (inactive); with DMS-114, 48.5 µM (inactive); in the assay with LXFL 529, > 100 µM (inactive); with DMS-273, > 100 µM (inactive); in the assay on M19-MEL it was > 100 µM (inactive).
Take `CC1(C)CC(=O)C(/C(=N/NC(=S)NN)C(=O)Nc2nc3ccc([N+](=O)[O-])cc3s2)C(=O)C1`: the GI50 with SNB-78 was > 100 µM (inactive); in the assay on KM-20L2, > 100 µM (inactive); in the assay on XF498 it was > 100 µM (inactive); in the assay on HOP-18, 76.7 µM (inactive); in the assay with DMS-114 it was > 100 µM (inactive); in the assay with LXFL 529, > 100 µM (inactive). Besides, the GI50 in the assay on M19-MEL was > 100 µM (inactive).
Regarding `Cc1nc(=O)n2c(C)n[nH]c2c1C(=O)O`, the GI50 in the assay with SNB-78, in the assay with XF498, with DMS-114, in the assay with LXFL 529 and in the assay on M19-MEL was > 100 µM (inactive) each time.
Regarding `CC1=C(C(=O)Nc2cc(F)c(F)cc2F)C(c2ccc([N+](=O)[O-])cc2)C(C(=O)Nc2cc(F)c(F)cc2F)=C(C)N1`, the GI50 with SNB-78 is 26.1 µM (inactive); in the assay with KM-20L2, 37.9 µM (inactive); in the assay with DMS-114, 15.3 µM (inactive); with LXFL 529 it was 39.7 µM (inactive); in the assay on M19-MEL, 57.7 µM (inactive).
Take `Cc1ccc(C(=O)CC2(O)C(=O)Nc3c(C)cc(Cl)cc32)cc1` (stereo not given): the GI50 in the assay on SNB-78 is > 100 µM (inactive); in the assay with KM-20L2, > 100 µM (inactive); with XF498, > 100 µM (inactive); in the assay on HOP-18 it was > 100 µM (inactive); with RXF 631, > 100 µM (inactive); with DMS-114, 52.1 µM (inactive). In addition, the GI50 in the assay with LXFL 529 and in the assay with DMS-273 was > 100 µM (inactive) throughout.
Turning to `c1ccc(CSc2nc3ccccc3nc2-c2cccs2)cc1`, the GI50 in the assay on SNB-78, with XF498, in the assay on HOP-18, in the assay with DMS-114, in the assay with LXFL 529 and in the assay with DMS-273 was > 100 µM (inactive) in each case. For the same compound, the GI50 in the assay on M19-MEL is > 100 µM (inactive).
Consider `Cc1ccccc1NC(=O)c1cc(-c2ccc([N+](=O)[O-])cc2)nc(S)n1`, for which the GI50 in the assay with SNB-78, in the assay with KM-20L2, in the assay with HOP-18, with RXF 631, with DMS-114 and in the assay with LXFL 529 was > 100 µM (inactive) throughout. Also, the GI50 in the assay with DMS-273 was > 100 µM (inactive).
Regarding `O=C(/C=C/c1ccc(O)c(O)c1)OC1C[C@@](O)(C(=O)O)C[C@@H](O)[C@H]1OC(=O)/C=C/c1ccc(O)c(O)c1` (stereo not given in full), the GI50 with SNB-78 was > 100 µM (inactive); with KM-20L2 it was 37.1 µM (inactive); in the assay with XF498, > 100 µM (inactive); with HOP-18, > 100 µM (inactive); with DMS-114, > 100 µM (inactive); in the assay with LXFL 529, > 100 µM (inactive). Also, the GI50 in the assay with DMS-273 and with M19-MEL was > 100 µM (inactive) each time.
With `COC(=O)C1=Cc2cc3c(cc2[C@H](c2ccc4c(c2)OCO4)C1C(=O)OC)OCO3` (stereo not given in full), the GI50 in the assay on SNB-78, in the assay with KM-20L2, in the assay with XF498, in the assay with HOP-18, in the assay on DMS-114 and with LXFL 529 was > 100 µM (inactive) throughout. Besides, the GI50 with DMS-273 and in the assay with M19-MEL was > 100 µM (inactive) each time.
With `CCCCCCCCCCCC[C@@H](O)[C@H]1CC[C@H]([C@H](O)CCCC[C@H](O)CCCCC[C@@H](O)CC2=C[C@H](C)OC2=O)O1`, the GI50 was 3.95 µM (inactive) in the assay on SNB-78; 2.19 µM (inactive) in the assay with KM-20L2; 3.23 µM (inactive) with HOP-18; < 0.01 µM (active) in the assay with DMS-114; 1.84 µM (inactive) in the assay on LXFL 529; 1.57 µM (inactive) in the assay on DMS-273. Moreover, the GI50 in the assay with M19-MEL is 1.69 µM (inactive).
For the compound `Cc1c[nH]c2c(O)cc3c(c12)[C@H](CCl)CN3C(=O)c1cc2cc(NC(=O)Nc3ccc4[nH]c(C(=O)N5C[C@@H](CCl)c6c5cc(O)c5[nH]cc(C)c65)cc4c3)ccc2[nH]1` [BIZELESIN], the GI50 with SNB-78, with KM-20L2, in the assay on XF498, in the assay with HOP-18, in the assay with RXF 631 and in the assay on DMS-114 was < 0.001 µM (active) each time. In addition, the GI50 in the assay with M19-MEL was < 0.001 µM (active).
